Patent US20230089247A1, “NOVEL COMPOUNDS SUITABLE FOR THE TREATMENT OF DYSLIPIDEMIA” (ZYDUS LIFESCIENCES LIMITED, priority 2019, published 2023)

Biological target: PCSK9 (Homo sapiens, UniProt Q8NBP7)
Experiment: BODIPY-LDL uptake assay in HepG2 cells
Format: cell-based
Conditions: 5 μg/ml PCSK9, BODIPY-LDL
Summary of the method: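 Compounds pre-incubated 60 min with 5 μg/ml PCSK9 (0.2% DMSO), then added to HepG2 cells for 16 h; 1 μg/ml BODIPY-LDL added in serum-free medium for 5 h. Fluorescence (Ex 485/Em 520 nm) normalized to protein; PCSK9-only wells = 0%, no-PCSK9 wells = 100% uptake, giving percent increase in LDL uptake.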

PCSK9, sequence (Q8NBP7 153-692): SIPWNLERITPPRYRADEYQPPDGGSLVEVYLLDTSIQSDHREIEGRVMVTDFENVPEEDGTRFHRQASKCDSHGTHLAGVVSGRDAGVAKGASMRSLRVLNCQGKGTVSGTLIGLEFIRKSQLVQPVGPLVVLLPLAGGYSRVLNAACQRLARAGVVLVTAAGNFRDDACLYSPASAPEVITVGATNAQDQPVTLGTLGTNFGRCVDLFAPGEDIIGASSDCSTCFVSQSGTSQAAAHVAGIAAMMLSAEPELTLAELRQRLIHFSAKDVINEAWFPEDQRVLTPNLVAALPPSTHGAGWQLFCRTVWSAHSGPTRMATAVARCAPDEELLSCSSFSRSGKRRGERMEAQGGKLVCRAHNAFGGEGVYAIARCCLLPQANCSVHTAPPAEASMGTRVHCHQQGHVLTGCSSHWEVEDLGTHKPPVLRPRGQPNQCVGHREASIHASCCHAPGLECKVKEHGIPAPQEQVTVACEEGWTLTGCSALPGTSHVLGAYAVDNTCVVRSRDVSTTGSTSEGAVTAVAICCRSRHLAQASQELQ

Compound	% increase in LDL Uptake (1 μM test compound) [%]	% increase in LDL Uptake (10 μM test compound) [%]	% increase in LDL Uptake (30 μM test compound) [%]
O=C(c1ccc(C2(O)COC2)cc1)N1CCC(c2cc(F)cc(C(F)(F)F)c2)CC1 [Example 14, (4-(3-fluoro-5-(trifluoromethyl)phenyl)piperidin-1-yl)(4-(3-hydroxyoxetan-3-yl)phenyl)methanone]	0	20	122
O=C(O)COC1(c2ccc(C(=O)N3CC4CN(c5ccc(C(F)(F)F)cc5)CC4C3)cc2)COC1 (stereo not drawn) [Example 13, 2-((3-(4-(5-(4-(trifluoromethyl)phenyl)octahydropyrrolo[3,4-c]pyrrole-2-carbonyl)phenyl)oxetan-3-yl)oxy)acetic acid]	29	43	33
N#CC1(c2ccc(C(F)(F)F)cc2)CCN(C(=O)c2ccc(C3(O)COC3)cc2)CC1 [Example 116, 1-(4-(3-hydroxyoxetan-3-yl)benzoyl)-4-(4-(trifluoromethyl)phenyl)piperidine-4-carbonitrile]	7	35	98
O=C(c1cccc(C2(O)COC2)c1)N1CC2=C(C1)CN(c1ccc(C(F)(F)F)cc1)C2 [Example 96, (3-(3-hydroxyoxetan-3-yl)phenyl)(5-(4-(trifluoromethyl)phenyl)-3,4,5,6-tetrahydropyrrolo[3,4-c]pyrrol-2(1H)-yl)methanone]	0	28	75
CCSCCOC1(c2ccc(C(=O)N3CCC(c4ccc(C(F)(F)F)cc4)CC3)cc2)COC1 [Example 189, (4-(3-(2-(ethylthio)ethoxy)oxetan-3-yl)phenyl)(4-(4-(trifluoromethyl)phenyl)piperidin-1-yl)methanone]	0	116	19
COC1(c2ccc(C(=O)N3CC4CC(OC)(c5ccc(C(F)(F)F)cc5)CC4C3)cc2)COC1 (stereo not drawn) [Example 92, (5-methoxy-5-(4-(trifluoromethyl)phenyl)hexahydrocyclopenta[c]pyrrol-2(1H)-yl)(4-(3-methoxyoxetan-3-yl)phenyl)methanone]	−2	−8	64
O=C(Nc1ccc(C2(O)COC2)cc1)N1CCC(c2ccc(C(F)(F)F)cc2)CC1 [Example 4, N-(4-(3-hydroxyoxetan-3-yl)phenyl)-4-(4-(trifluoromethyl)phenyl) piperidine-1-carboxamide]	38	58	77
COC1(c2ccc(NC(=O)N3CC4CN(c5ccc(C(F)(F)F)cc5)CC4C3)cc2)COC1 (stereo not drawn) [Example 74, N-(4-(3-methoxyoxetan-3-yl)phenyl)-5-(4-(trifluoromethyl)phenyl) hexahydropyrrolo[3,4-c]pyrrole-2(1H)-carboxamide]	34	42	100
COc1ccc(C2CCN(C(=O)c3ccc(C4(O)COC4)cc3)CC2)cc1Cl [Example 26, (4-(3-chloro-4-methoxyphenyl)piperidin-1-yl)(4-(3-hydroxyoxetan-3-yl)phenyl)methanone]	15	21	33
Cc1ccc(C2CCN(C(=O)c3ccc(C4(O)COC4)cc3)CC2)cc1Cl [Example 29, (4-(3-chloro-4-methylphenyl)piperidin-1-yl)(4-(3-hydroxyoxetan-3-yl)phenyl)methanone]	0	17	49
O=C(c1ccc(C2(O)CNC2)cc1)N1CCC(c2ccc(C(F)(F)F)cc2)CC1 [Example 155, (4-(3-hydroxyazetidin-3-yl)phenyl)(4-(4-(trifluoromethyl)phenyl)piperidin-1-yl)methanone]	0	0	58
O=C(c1ccc(C2(O)COC2)cc1)N1CCC(c2ccc(OC(F)(F)F)cc2)CC1 [Example 22, (4-(3-hydroxyoxetan-3-yl)phenyl)(4-(4-(trifluoromethoxy)phenyl)piperidin-1-yl)methanone]	0	19	14
COC1(c2ccc(C(=O)N3CC4CN(c5ccc(C(F)(F)F)cc5)CC4C3)cc2)CSC1 (stereo not drawn) [Example 149, (4-(3-methoxythietan-3-yl)phenyl)(5-(4-(trifluoromethyl)phenyl)hexahydropyrrolo[3,4-c]pyrrol-2(1H)-yl)methanone]	0	30	9
CC#CCOC1(c2ccc(C(=O)N3CCC(c4ccc(C(F)(F)F)cc4)CC3)cc2)COC1 [Example 70, (4-(3-(but-2-yn-1-yloxy)oxetan-3-yl)phenyl)(4-(4-(trifluoromethyl)phenyl)piperidin-1-yl)methanone]	0	26	14
O=S(=O)(c1ccc(C2(O)COC2)cc1)N1CC2CN(c3ccc(C(F)(F)F)cc3)CC2C1 (stereo not drawn) [Example 98, 3-(4-((5-(4-(trifluoromethyl)phenyl)hexahydropyrrolo[3,4-c]pyrrol-2(1H)-yl)sulfonyl)phenyl)oxetan-3-ol]	0	124	3
O=C(c1ccc(C2(OCCO)COC2)cc1)N1CCC(c2ccc(C(F)(F)F)cc2)CC1 [Example 188, (4-(3-(2-hydroxyethoxy)oxetan-3-yl)phenyl)(4-(4-(trifluoromethyl)phenyl)piperidin-1-yl)methanone]	0	152	136
[2H]C([2H])([2H])OC1(c2cccc(C(=O)N3CCC(c4ccc(C(F)F)cc4)CC3)c2)COC1 [Example 59, (4-(4-(difluoromethyl)phenyl)piperidin-1-yl)(3-(3-(methoxy-d3)oxetan-3-yl)phenyl) methanone]	0	0	37
COC(=O)c1ccc(C2(O)CC3CN(C(=O)c4ccc(C5(O)COC5)cc4)CC3C2)cc1 (stereo not drawn) [Example 198, Methyl 4-(5-hydroxy-2-(4-(3-hydroxyoxetan-3-yl)benzoyl)octahydrocyclopenta[c]pyrrol-5-yl)benzoate]	−8	25	3
O=C(c1ccc(C2(O)COC2)cc1)N1CCC(c2ccc(C(F)F)cc2)CC1 [Example 69, (4-(4-(difluoromethyl)phenyl)piperidin-1-yl)(4-(3-hydroxyoxetan-3-yl)phenyl)methanone]	0	0	76
O=C(c1ccc(C2(O)COC2)cc1)N1CCC(c2ccccc2C(F)(F)F)CC1 [Example 33, (4-(3-hydroxyoxetan-3-yl)phenyl)(4-(2-(trifluoromethyl)phenyl)piperidin-1-yl)methanone]	59	73	69
O=C(c1ccc(C2(O)CSC2)cc1)N1CC2CN(c3ccc(C(F)(F)F)cc3)CC2C1 (stereo not drawn) [Example 146, (4-(3-hydroxythietan-3-yl)phenyl)(5-(4-(trifluoromethyl)phenyl)hexahydropyrrolo[3,4-c]pyrrol-2(1H)-yl)methanone]	53	212	29
CCOC1(c2ccc(C(=O)N3CC4CN(c5ccc(C(F)(F)F)cc5)CC4C3)cc2)CSC1 (stereo not drawn) [Example 150, (4-(3-ethoxythietan-3-yl)phenyl)(5-(4-(trifluoromethyl)phenyl)hexahydropyrrolo[3,4-c]pyrrol-2(1H)-yl)methanone]	0	5	25
COC1(c2ccc(C(=O)N3CCC(c4ccc(C(F)(F)F)c(F)c4)CC3)cc2)COC1 [Example 38, (4-(3-fluoro-4-(trifluoromethyl)phenyl)piperidin-1-yl)(4-(3-methoxyoxetan-3-yl)phenyl)methanone]	43	51	25
COC1(c2cccc(C(=O)N3CCC(c4ccc(C(F)F)cc4)CC3)c2)COC1 [Example 65, (4-(4-(difluoromethyl)phenyl)piperidin-1-yl)(3-(3-methoxyoxetan-3-yl)phenyl)methanone]	0	9	66
O=C(c1cccc(C2(O)COC2)c1)N1CCC(c2ccccc2C(F)(F)F)CC1 [Example 122, (3-(3-hydroxyoxetan-3-yl)phenyl)(4-(2-(trifluoromethyl)phenyl)piperidin-1-yl)methanone]	0	16	12
O=C(Nc1ccc(C2(O)COC2)cc1)C1CCN(c2ccc(C(F)(F)F)cc2)CC1 [Example 3, N-(4-(3-hydroxyoxetan-3-yl)phenyl)-1-(4-(trifluoromethyl)phenyl) piperidine-4-carboxamide]	−2	39	34
O=C(c1ccc(C2(O)CCNC2)cc1)N1CCC(c2ccc(C(F)(F)F)cc2)CC1 (stereo not drawn) [Example 152, (4-(3-hydroxypyrrolidin-3-yl)phenyl)(4-(4-(trifluoromethyl)phenyl)piperidin-1-yl)methanone]	0	0	31
